Read-outs that look alike come from different tables or passages of the source. Where a SMILES comes first, the peptide text is derived from it. [ ]: non-standard residue; d: D form. The star is where a group is joined. Sta = CC(C)C[C@H](N)[C@@H](O)CC(=O)O; Isovaleryl = CC(C)CC(=O)*
How the values were obtained:
[1] = system: DENV2 protease; design: method as in PMID 16621533; details: cited from earlier work; for inhibition of protease activity: 80 ppm (200 μM) ref 21; for Ki: protease assay ref 21
[2] = system: dengue NS2B/NS3 protease; design: method as in PMID 11581268; details: cited from earlier work
[3] = Solubility of compounds for screening (DMSO stock); type: physicochemical; details: needed 10% v/v DMSO in the assay
[4] = biological target: T1, NS2B/NS3 protease (Dengue virus type 2, UniProt P14340); assay: Protease assay using fluorogenic peptide substrate (BOC-Gly-Arg-Arg-AMC); type: biochemical
T1 construct: active site of the serine protease domain of the NS2B/NS3 protease; made in house; host or cells: Escherichia coli XL 1-Blue MRF
T1 sequence (P14340 1476-1653): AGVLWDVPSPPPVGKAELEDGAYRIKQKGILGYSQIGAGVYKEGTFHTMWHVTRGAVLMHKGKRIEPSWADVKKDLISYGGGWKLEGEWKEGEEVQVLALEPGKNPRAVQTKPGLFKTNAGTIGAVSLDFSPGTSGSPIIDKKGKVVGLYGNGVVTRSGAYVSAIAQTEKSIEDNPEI
T1 sequence (P14340 1346-1475): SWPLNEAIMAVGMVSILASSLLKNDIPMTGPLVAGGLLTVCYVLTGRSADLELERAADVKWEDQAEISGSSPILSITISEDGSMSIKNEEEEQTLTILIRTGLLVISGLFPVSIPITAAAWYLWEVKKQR
Protocol: Dengue NS2B/NS3 protease enzyme was expressed and purified as previously described. Briefly, NS2B/NS3 expression plasmid was propagated in Escherichia coli strain XL 1-Blue MRF (Agilent Technologies, Santa Clara, CA).The enzyme was isolated and purified using Ni^2+-NTA (nickel-nitrilotriacetic acid) resin-based column. The specific proteolytic activity of NS2B/NS3 protease was determined using similar formula as published for other proteases. Protease assay using fluorogenic peptide susbtrate (BOC-Gly-Arg-Arg-AMC) was also used to determine the NS2B/NS3 inhibition activities of the controls and derivatives. […] Cleavage of the substrate by NS2B/NS3 protease and detection of the fluorescence signal were determined using Envision 2104 Multilabel Plate Reader (Perkin Elmer, Boston, MA, USA) at excitation and emission wavelength of 385 nm and 465 nm, respectively. […]
IC50 values were derived based on non-linear regression analysis computed using GraphPad Prism 5.0 (GraphPad Software, La Jolla, CA, USA). […] The zʹ factor was calculated as described by Zhang and co-workers. zʹ factor = 1–3×(σH+σL)/|μH−μL|, where σH and σL represent the standard deviations of the AlphaScreen® signal of the substrate in the absence (high signal, H) and presence (low signal, L) of the protease, and μH and μL represent the mean values of high signal and low signal, respectively. […]

[5] = biological target: T1, NS2B/NS3 protease; assay: NS2B/NS3 protease inhibition assay using AlphaScreen beads; type: biochemical
Protocol: The peptide substrate used in this assay has a known NS2B/NS3 cleavage site between lysine (K), and serine (S) (GRK ↓ SLT), and is a part of a sequence of dengue polyprotein precursor (NS3/NS4A) as reported by Khumtong and co-workers. The peptide substrate was tagged with a specific sequence ([…]) at N-terminal and polyhistidine at C-terminal. This specific sequence has a binding affinity towards StrepTactin®, an engineered streptavidin [37]. Glycine linkers were added on both sides of untagged peptide substrate (Fig. 1a and b). To determine the extent of N-terminal labelling on the peptide substrate, competitive displacement assay using AlphaScreen® TruHits Detection Kit (Perkin Elmer, USA) consisting of StrepTactin® donor beads and biotinylated acceptor beads was carried out. On the other hand, to ensure that the peptide substrate is adequately tagged with polyhistidine on the C-terminal, competitive binding assay using Histidine (Nickel Chelate) Detection Kit (Perkin Elmer, USA) was carried out. This kit comprises of both StrepTactin® donor beads and nickel chelate acceptor beads.
In general, AlphaScreen® experiments were carried out in white 384-well plates (Perkin Elmer, Boston, MA, USA) in a total reaction volume of 25 μL under subdued light. […] The 384-well plate was read using Envision 2104 Multilabel Plate Reader (Perkin Elmer, Boston, MA, USA) according to AlphaScreen® settings (excitation and emission wavelength at 680nm and 520-620nm, respectively). […] After incubating for 1 h, 5 μL of donor beads and acceptor beads were added, followed by 1 h incubation at room temperature prior to reading of signal. […] The optimum conditions were determined based on the maximum signal obtained from well containing peptide alone and minimum signal produced by well containing peptide substrate, enzyme and beads, indicating maximum cleavage of the NS2B/NS3 enzyme on the substrate and lowest background signal. […] Since the amount obtained for diversity 0713 was in minute quantity and was insufficient for subsequent testing, diversity 0713 was not used as control in this study. […]

CC(C)=CC[C@@H]1C(C)=CC[C@@H](c2ccccc2)[C@@H]1C(=O)c1c(O)cc(O)cc1O [4-hydroxypanduratin A]
inhibition of protease activity [1]: 65–80%
Ki [1]: 21 µM

CC(C)CC(=O)N[C@H](C(=O)N[C@H](C(=O)N[C@@H](CC(C)C)[C@@H](O)CC(=O)N[C@@H](C)C(=O)N[C@@H](CC(C)C)[C@@H](O)CC(=O)O)C(C)C)C(C)C [pepstatin A] (Isovaleryl-VV[Sta]A[Sta]-OH)
enzyme inhibition (in words) [2]: no enzyme inhibition

Fc1ccc(C=Nc2nc(S)c3nc[nH]c3n2)cc1 [Compound 12, 2-(4-fluorobenzylideneamino)-9H-purine-6-thiol]
solubility (in words) [3]: low solubility

COc1cc(O)c(C(=O)[C@@H]2[C@H](CC=C(C)C)C(C)=CC[C@H]2c2ccccc2)c(O)c1 [Panduratin A]
IC50 [4]: 211 µM
inhibition of protease activity [1]: 65–80%
Ki [1]: 25 µM
IC50 [5]: > 100 µM
inhibition at 100 µM ([5]; 100 μM, AlphaScreen assay, read-out: maximum inhibition at the highest concentration tested): > 50%

c1ccc(CNc2nc(SCc3ccccc3)c3ncn(Cc4ccccc4)c3n2)cc1 [Compound 10, N, 9-dibenzyl-6-(benzylsulfanyl)-9H-purin-2-amine]
solubility (in words) [3]: low solubility

Cc1ccc(S(=O)(=O)N[C@@H](CCCCN)C(=O)CCl)cc1.Cl [N-Tosyl-L-lysine chloromethyl ketone.hydrochloride]
enzyme inhibition (in words) [2]: no enzyme inhibition

Cl.N=C(N)c1ccc(CS(=O)(=O)F)cc1 [4-Amidinophenylmethanesulfonyl fluoride.hydrochloride]
enzyme inhibition (in words) [2]: no enzyme inhibition

CC(=O)N[C@@H](CC(C)C)C(=O)N[C@@H](CC(C)C)C(=O)N[C@H](C=O)CCCNC(=N)N [leupeptin]
enzyme inhibition (in words) [2]: no enzyme inhibition

N=C(N)c1ccccc1 [benzamidine]
enzyme inhibition (in words) [2]: no enzyme inhibition

Aprotinin
IC50 ([4]; protease assay, fluorogenic substrate, 1 h at 37 °C, read-out: IC50): 0.15 µM
IC50 ([2]; published value, different assay system ref 59): 0.065 µM
IC50 ([5]; AlphaScreen assay, read-out: IC50): 0.35 µM

O=S(=O)(F)Cc1ccccc1 [phenylmethylsulfonyl fluoride]
enzyme inhibition (in words) [2]: no enzyme inhibition

Cc1ccc(S(=O)(=O)N[C@@H](Cc2ccccc2)C(=O)CCl)cc1 [N-Tosyl-L-phenylalanine chloromethyl ketone]
inhibition of enzyme ([2]; 1 mM ref 59): 20–30%

Cl.NCCc1ccc(S(=O)(=O)F)cc1 [4-(2-aminoethyl) benzenesulfonyl fluoride.hydrochloride]
inhibition of enzyme ([2]; 500 μM ref 59): 20–30%

Nc1nc(SCc2ccccc2)c2[nH]cnc2n1 [Compound 8, 6-(benzylsulfanyl)-9H-purin-2-amine]
solubility (in words) [3]: low solubility

c1ccc(CSc2nc(N(Cc3ccccc3)Cc3ccccc3)nc3c2ncn3Cc2ccccc2)cc1 [Compound 11, N, N, 9-tribenzyl-6-(benzylsulfanyl)-9H-purin-2-amine]
solubility (in words) [3]: low solubility

Nc1nc(SCc2ccccc2)c2ncn(Cc3ccccc3)c2n1 [Compound 9, 9-benzyl-6-(benzylsulfanyl)-9H-purin-2-amine]
solubility (in words) [3]: low solubility

B1: soybean trypsin inhibitor: serine protease inhibitor (protein, UniProt P01070 25-205, looked up)
Trypsin inhibitor A: DFVLDNEGNPLENGGTYYILSDITAFGGIRAAPTGNERCPLTVVQSRNELDKGIGTIISSPYRIRFIAEGHPLSLKFDSFAVIMLCVGIPTEWSVVEDLPEGPAVKIGENKDAMDGWFRLERVSDDEFNNYKLVFCPQQAEDDKCGDIGISIDHDDGTRRLVVSKNKPLVVQFQKLDKESL
enzyme inhibition (in words) [2]: no enzyme inhibition

Reference: publication PMC6289942, “Development of a NS2B/NS3 protease inhibition assay using AlphaScreen® beads for screening of anti-dengue activities” (Heliyon, 2018)
